According to patent EP0177414A1, “Jodized triaminobenzene compounds, process for their preparation and their use in contrast products” (GUERBET S.A., priority 1984, dated 1986):
Converted amounts (≈) assume the structure as drawn.

Legend:
[1] = Solubility; format: physicochemical; settings: read-out: Solubilité
Text: (§1) - l'osmolalité exprimée en mosmoles par kg, est déterminée par cryoscopie à l'aide d'un osmomètre de type FISKE-OS Les résultats sont donnés dans le tableau suivant où l'on a également donné 1a solubilité des composés

[2] = Neurotoxicity: acute toxicity by intracerebral administration; design: species or system souris; settings: mouse, in vivo, female SWISS OF1 mice, toxicity noted 7 days after administration, read-out: DL50 IC
Text: - la toxicité aiguë des composés a été déterminée sur souris femelles (poids 20 g) de souche SWISS OF1 par administration intra-cérébrale selon la technique décrite par HOLEY et Mc CQRMICK dans :
Pharmacological effects produced by intracerebral injection of drugs in the conscious mouse BRIT.J.PHARMACOL. 12, 2. 1957.
5 animaux sont utilisés par dose, les volumes administrés sont de 0,05 cm^3 - 0,07 cm^3 - 0,10 cm^3 par souris soit 2,5 - 3,5 et 5 cm^3 par kg, avec des vitesses d'injection lentes.
La toxicité (DL50) est notée 7 jours après l'administration. 2) Osmolalité

[3] = Stability to sterilisation; format: physicochemical; settings: treated at 121 °C for 10 mn
[4] = Osmolality by cryoscopy (FISKE-OS osmometer); format: physicochemical
Text: as §1

Row | SMILES | solubility [1] | LD50 at 168 h [2] | stables à la stérilisation [3] | Osmolalité [4]
1 | COCC(=O)Nc1c(I)c(N(CC(O)CO)C(C)=O)c(I)c(N(CC(O)CO)C(C)=O)c1I (centres unmarked) [Exemple 8] | 940 mM (≈ 757 mg/mL) | 3300 µmol/kg | ne présentent pas de modifications | 
2 | CC(=O)N(CC(O)CO)c1c(I)c(NC(=O)C(C)O)c(I)c(N(CC(O)CO)C(C)=O)c1I (centres unmarked) [Exemple 9, 2,4,6-triiodo-1-(2-hydroxypropionyl-amino)-3,5-bis [N-(2,3-dihydroxy propyl)acétamido]benzène] | 1000 mM (≈ 805 mg/mL) | 3500 µmol/kg | ne présentent pas de modifications | 690 mosmol par kg
3 | CC(=O)N(CC(O)CO)c1c(I)c(N(CC(O)CO)C(C)=O)c(I)c(N(CC(O)CO)C(C)=O)c1I (centres unmarked) [Exemple 3, 2,4,6-triiodo-1,3,5-tris [N-(2,3-dihydroxy propyl)acétamido]benzène] | 1000 mM (≈ 849 mg/mL) | 4000 µmol/kg | ne présentent pas de modifications | 630 mosmol par kg
